Assay results as given in patent US20170342136A1, “MONOCLONAL ANTIBODY AGAINST MURAMYL PEPTIDES IN PREVENTION AND TREATMENT OF IMMUNE-MEDIATED DISEASES” (Agency for Science, Technology and Research, priority 2015, published 2017).

Assays:
[1] = test system: Collagen Induced Arthritis (CIA) mouse model; experiment: Collagen Induced Arthritis (CIA) mouse model with implanted osmotic pump releasing MDP; assay type: in vivo, DBA/1J mice
Protocol: (A) illustrates the subcutaneous implantation of an osmotic pump loaded with 200 µl of 5 mg/ml MDP and released at a rate of 0.25μ1/hr onto the back of a mouse.
DBA/1J mice were induced to develop arthritis by immunization with an emulsion of complete Freund's adjuvant and type II collagen, and each mouse also carried an implanted pump as described in FIG. 5 that releases either PBS or MDP at 0.25 μl/hr.

[2] = Blood MP level after oral amoxicillin, competitive ELISA using 2E7; assay type: in vivo, mice; conditions: 100 mg/kg oral at 12-h intervals, 4 h after each feeding
Protocol: Amoxicillin was administered orally to 50 mice at 12-h intervals and three mice were sacrificed every 4 h to collect blood for peptidoglycan quantification by ELISA. […] Serial blood samples were taken. Time for blood draw and IV injection are indicated.
The MP level in serum was determined by competitive ELISA using an example of the antibody of the present disclosure, i.e. 2E7.

Escherichia coli = experiment: MPs in culture supernatant with or without amoxicillin, competitive ELISA using 2E7; assay type: cell-based; conditions: 40 μg per ml amoxicillin added at OD600=1.5
Protocol: (§1) The standard curve was used to determine the peptidoglycan concentration in a sample. […] Both bacteria were grown to OD600=1.5. Each culture was divided into two, and one treated with 40 μg/ml amoxicillin (Amx) and the other untreated. Aliquots were collected at the indicated times and the amount of MPs in the supernatant was determined by competitive ELISA. […] After removing unbound antibodies by PBS washes, the cells were incubated with a FITC-labeled anti-mouse IgG Ab before fluorescence microscopic examination.
(§2) For this test, Gram-positive bacterium Staphylococcus aureus, which has a thick peptidoglycan layer, and Gram-negative Escherichia coli, which has a thin peptidoglycan layer, were selected and grown in the presence or absence of amoxicillin. The culture was grown to a density of OD600=1.5 and then divided into two equal aliquots. To one aliquot, amoxicillin was added to a final concentration of 40 μg per ml, and to the other aliquot, no drug was added. Both cultures were allowed to continue to grow. Aliquots of cultures were collected at timed intervals and cells were removed by centrifugation. The amount of MPs in the supernatant was determined by competitive ELISA using 2E7.

Staphylococcus aureus = experiment: as above; assay type: cell-based; conditions: 40 μg per ml amoxicillin added at OD600=1.5
Protocol: as §1, §2

SMILES | clinical paw scores ([1]; increase in MDP concentration, time dependent, n=4) | development of rheumatoid arthritis ([1]; pump releasing MDP at 0.25 μl/hr vs PBS) | increase in the blood MP level [2] | molecules in culture medium that inhibit 2E7 binding to MDP (Escherichia coli) | molecules in culture medium that inhibit 2E7 binding to MDP (Staphylococcus aureus)
CC(=O)N[C@@H]1[C@@H](O[C@H](C)C(=O)N[C@@H](C)C(=O)N[C@H](CCC(=O)O)C(N)=O)[C@H](O)[C@@H](CO)O[C@H]1O [MDP] | increased clinical paw scores | promoted the development of rheumatoid arthritis | – | – | –
CC1(C)S[C@@H]2[C@H](NC(=O)[C@H](N)c3ccc(O)cc3)C(=O)N2[C@H]1C(=O)O [amoxicillin] | – | – | 20-60% | sharp increase | sharp increase
